In BindingDB's records for patent US12065430 (Taiho Pharmaceutical, 2024):

Molecular target: T1, Son of sevenless homolog 1 [564-1049]/GTPase KRas [G12C] (UniProt P01116+Q07889, G12C)
T1 construct: 564-1049
Assay: Evaluation of Inhibitory Activity of Compounds on KRAS G12C Nucleotide (GDP-GTP) Exchange Reaction
Protocol: The inhibitory activity of compounds on exchange reaction of GDP into GppNHp in Bodipy (trademark) FL-bound KRAS G12C was examined by fluorescence measurement using human recombinant KRAS G12C and SOS1 proteins.For the preparation of KRAS G12C to which Bodipy FL GDP was bound, first, […] KRAS G12C (amino acid region: 1-169) and 1 mM Bodipy FL GDP (Invitrogen, G22360) were incubated for 1 hour in a buffer (20 mM Tris-HCl (pH 7.5), 50 mM NaCl, 1 mM DTT) in ice in the presence of 2.5 mM EDTA. Thereafter, MgCl2 with a final concentration of 10 mM was added, and the mixture was incubated at room temperature for 30 minutes. The protein was allowed to pass through a NAP-5 column to remove free nucleotides and was used for compound evaluation.For the measurement of the inhibitory activity of compounds on nucleotide exchange reaction, first, the compound of the present invention was diluted stepwise with dimethyl sulfoxide (DMSO). Subsequently, a solution of the gradually diluted compound of the present invention in DMSO (the final concentration of DMSO: 5%) and KRAS G12C (25 nM) bound to Bodipy FL GDP were added to a reaction buffer (20 mM Tris-HCl (pH 7.5), 100 mM NaCl, 1 mM MgCl2, 2 mM DTT, 0.1% Tween20), followed by preincubation at 25° C. for 4 hours. Thereafter, Son of Sevenless Homolog 1 (SOS1, amino acid region: 564-1049) and GppNHp (GMPPNP, Jena Bioscience GmbH, NU-401-50) were added such that their final concentration was 100 nM and 1 μM respectively, followed by reaction for 30 minutes. The change in fluorescence intensity of Bodipy FL (excitation wavelength: 485 nm, fluorescence wavelength: 520 nm) immediately after the start of reaction and after 30 minutes from the start of reaction was standardized. The signal value for only DMSO was determined to be 0% inhibition, and the signal value for no addition of GppNHp was determined to be 100% inhibition. The compound concentration at which 50% inhibition is achieved was determined to be IC50 (nM), and was calculated.

T1 sequence (P01116 whole entry G12C): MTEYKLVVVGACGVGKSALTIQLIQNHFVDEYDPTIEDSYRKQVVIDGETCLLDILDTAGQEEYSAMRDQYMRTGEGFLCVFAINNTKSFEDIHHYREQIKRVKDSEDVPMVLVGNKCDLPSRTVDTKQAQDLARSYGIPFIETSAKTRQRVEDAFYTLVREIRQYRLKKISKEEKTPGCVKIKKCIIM
T1 sequence (Q07889 564-1049): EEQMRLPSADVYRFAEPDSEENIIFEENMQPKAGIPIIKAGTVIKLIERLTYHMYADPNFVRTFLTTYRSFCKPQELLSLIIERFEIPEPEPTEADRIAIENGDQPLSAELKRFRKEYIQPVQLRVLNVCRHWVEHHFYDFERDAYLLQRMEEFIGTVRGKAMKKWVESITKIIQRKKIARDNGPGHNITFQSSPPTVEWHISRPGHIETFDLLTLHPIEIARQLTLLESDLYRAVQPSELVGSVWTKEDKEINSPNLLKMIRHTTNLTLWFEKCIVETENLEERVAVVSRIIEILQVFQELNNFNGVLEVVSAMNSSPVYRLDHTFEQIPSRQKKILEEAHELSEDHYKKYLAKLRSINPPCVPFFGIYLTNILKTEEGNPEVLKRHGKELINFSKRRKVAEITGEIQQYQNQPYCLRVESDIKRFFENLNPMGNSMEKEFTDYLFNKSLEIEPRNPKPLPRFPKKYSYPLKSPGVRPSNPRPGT

| Compound | IC50 |
| --- | --- |
| C=CC(=O)N1CC(NC(=O)c2c(C)nc(CNc3n[nH]c4cc(Cl)c(C(C)(C)C)cc34)n2C2CCCC2)C1 [US12065430, Example 17] | 17 nM |
| CC#CC(=O)N1CC(NC(=O)c2c(C)nc(CNc3n[nH]c4cc(Cl)c(C(C)(C)C)cc34)n2C(C)C)C1 [US12065430, Example 82] | 209 nM |
| CC(C)n1c(CNc2n[nH]c3cc(Cl)c(C(C)(C)C)cc23)nc(C(F)F)c1C(=O)NC1CN(C(=O)/C=C/CN(C)C)C1 [US12065430, Example 84] | 63 nM |
| C=CC(=O)N1CC(NC(=O)c2c(Cl)nc(CNc3n[nH]c4cc(Cl)c(C(C)(C)C)cc34)n2C(C)C)C1 [US12065430, Example 35] | 8 nM |
| C=CC(=O)N1CC(NC(=O)c2csc(CNc3n[nH]c4cc(Cl)c(C(C)(C)C)cc34)n2)C1 [US12065430, Example 7] | 4260 nM |
| C=CC(=O)N1C[C@@H](CF)[C@@H](NC(=O)c2c(C)nc(CNc3n[nH]c4cc(Cl)c(C(C)(C)C)cc34)n2C)C1 [US12065430, Example 66] | 20 nM |
| C=CC(=O)N1CC(NC(=O)c2c(Cl)nc(CNc3n[nH]c4cc(Cl)c(C(C)(C)C)cc34)n2CC(C)C)C1 [US12065430, Example 89] | 7 nM |
| C=CC(=O)N1CC(NC(=O)c2c(Cl)nc(CNc3n[nH]c4cc(Cl)c(C(C)(C)C)cc34)n2[C@@H]2CCN(C3COC3)C2)C1 [US12065430, Example 121] | 5 nM |
| C=CC(=O)N1CC(NC(=O)c2c(Cl)nc(CNc3n[nH]c4cc(Cl)c(C(C)(C)C)cc34)n2[C@@H]2CCN(CCOC)C2)C1 [US12065430, Example 119] | 11 nM |
| C=CC(=O)N1CC(NC(=O)c2c(Cl)nc(CNc3n[nH]c4cc(Cl)c(C(C)(C)C)cc34)n2CCOC)C1 [US12065430, Example 90] | 6 nM |
| C=CC(=O)N1CC(NC(=O)c2c(Cl)nc(CNc3n[nH]c4cc(Cl)c(C(C)(C)C)cc34)n2C2CCCC2)C1 [US12065430, Example 105] | 8 nM |
| C=CC(=O)N1CC(NC(=O)c2c(C)nc(CNc3n[nH]c4cc(C)c(C(C)(C)C)cc34)n2C)C1 [US12065430, Example 41] | 14 nM |
| C=CC(=O)N1CC(NC(=O)c2c(C(F)F)nc(CNc3n[nH]c4cc(Cl)c(C(C)(C)C)cc34)n2C2CCN(C)C2)C1 (stereo not drawn) [US12065430, Example 91] | 7 nM |
| C=CC(=O)N1CC(NC(=O)c2cnc(CNc3n[nH]c4cc(Cl)c(C(C)(C)C)cc34)n2C)C1 [US12065430, Example 1] | 16 nM |
| C/C=C/C(=O)N1CC(NC(=O)c2c(C)nc(CNc3n[nH]c4cc(Cl)c(C(C)(C)C)cc34)n2C(C)C)C1 [US12065430, Example 81] | 2630 nM |
| C=CC(=O)N1CC(NC(=O)c2c(C(F)F)nc(CNc3n[nH]c4cc(Cl)c(C(C)(C)C)cc34)n2C2CCN(CC)C2)C1 (stereo not drawn) [US12065430, Example 92] | 10 nM |
| C=CC(=O)N1CC(NC(=O)c2c(C)nc(CNc3n[nH]c4ccc(C(C)(C)C)cc34)n2C(C)C)C1 [US12065430, Example 42] | 68 nM |
| C=CC(=O)N1CC(NC(=O)c2cnc(CNc3n[nH]c4cc(Cl)c(C(C)(C)C)nc34)n2C)C1 [US12065430, Example 40] | 27 nM |
| C=CC(=O)N1CC(NC(=O)c2c(Cl)nc(CNc3n[nH]c4cc(Cl)c(C(C)(C)C)cc34)n2[C@@H]2CCN(CC(F)F)[C@H]2C)C1 [US12065430, Example 125] | 13 nM |
| C=CC(=O)N1CC(NC(=O)c2cnc(CNc3n[nH]c4cc(Cl)c(CC)cc34)n2C)C1 [US12065430, Example 39] | 870 nM |
| C=CC(=O)N1CC(NC(=O)c2c(C(F)F)nc(CNc3n[nH]c4cc(Cl)c(C(C)(C)C)cc34)n2C2CCN(C(C)C)C2)C1 (stereo not drawn) [US12065430, Example 93] | 6 nM |
| C=CC(=O)N1CC(NC(=O)c2c(Cl)nc(CNc3n[nH]c4cc(Cl)c(C(C)(C)C)cc34)n2[C@@H]2C[C@@H](O)[C@@H](O)C2)C1 [US12065430, Example 99] | 7 nM |
| Cc1nc(CNc2n[nH]c3cc(Cl)c(C(C)(C)C)cc23)n(C(C)C)c1C(=O)NC1CN(C(=O)/C=C\Cl)C1 [US12065430, Example 83] | 2350 nM |
